Experimental findings from US20210387978A1, “CYCLOBUTYL DIHYDROQUINOLINE SULFONAMIDE COMPOUNDS” (AMGEN INC., priority 2020, published 2021) are described below.

pIC50: −log10 of the molar value.

In one series the target is T1, Human Nav1.7 (Homo sapiens, UniProt Q15858).
T1 construct: expressed in transfected cells; host or cells: Spiking HEK cells (without Kir2.1 transfection)
Kind of series: IonWorks Barracuda (IWB) automated patch clamp assay. Type of series: cell-based. Particulars: human Nav1.7 currents, HEK cells, population patch-clamp, state- and use-dependent voltage protocol; read-out: hNaV1.7 IWB-U IC50. The method, then: Ionaworks Barracuda […] Automated Patch Clamp Assay (Same Protocol for Both Human and Mouse)
Human Nav1.7 currents were recorded in population patch-clamp mode with the IWB automated electrophysiology system (Molecular Devices, LLC, Sunnyvale, Calif.). Spiking HEK cells (without Kir2.1 transfection) were cultured and prepared for recordings as previously described for IonWorks Quattro testing^1. The external solution consisted of the following (in mM): NaCl 140, KCl 5, CaCl2 2, MgCl2 1, HEPES 10, and glucose 11, pH 7.4, with N-methyl-D-glucamine at 320 mOsmol. […] From a holding potential of −110 mV, currents were elicited by a train of 26 depolarizations of 150 ms duration to −20 mV at a frequency of 5 Hz. Cells were then clamped to −20 mV for a period of 4 minutes in the presence of a single concentration of test compound. Following this compound incubation period, cells were clamped to −110 mV for three seconds to recover unbound channels and put through the same 26 pulse voltage protocol as above. Peak inward current during the 26th pulse to −20 mV in the presence of compound was divided by the peak inward current evoked by the 26th pulse to −20 mV in the absence of compound to determine percent inhibition. Concentration-response curves of percent inhibition as a function of concentration were generated to calculate IC50 values as described in Kornecook, T. J.; Yin, R.; Altmann, S.; et al. Pharmacologic Characterization of AMG8379, a Potent and Selective Small Molecule Sulfonamide Antagonist of the Voltage-Gated Sodium Channel NaV1. 7.
The potency of the compounds of the present invention were evaluated on human Nav1.7 channels using the above described IonWorks Barracuda automated electrophysiology platform that evaluates the ability of compounds to block sodium conductance through Nav1.7 channels. A voltage-protocol that prosecutes both state-dependent as well as use-dependent inhibition was used as these modes of action are thought to be more relevant for the native state of Nav1.7 channels in pain sensing neurons in vivo.
Background: In patch-clamp work, channel activity is measured electrically.

Another series deals with CYP3A4. As to the kind of experiment: Human CYP 3A4 Induction Assay (mRNA, cryopreserved human hepatocytes). Type of series: in vitro ADME. Particulars: 10 uM test compound, 72 hours, percent of control (POC), rifampin positive control. An excerpt:
Human CYP 3A4 Induction Assay

T1 sequence (Q15858 whole entry): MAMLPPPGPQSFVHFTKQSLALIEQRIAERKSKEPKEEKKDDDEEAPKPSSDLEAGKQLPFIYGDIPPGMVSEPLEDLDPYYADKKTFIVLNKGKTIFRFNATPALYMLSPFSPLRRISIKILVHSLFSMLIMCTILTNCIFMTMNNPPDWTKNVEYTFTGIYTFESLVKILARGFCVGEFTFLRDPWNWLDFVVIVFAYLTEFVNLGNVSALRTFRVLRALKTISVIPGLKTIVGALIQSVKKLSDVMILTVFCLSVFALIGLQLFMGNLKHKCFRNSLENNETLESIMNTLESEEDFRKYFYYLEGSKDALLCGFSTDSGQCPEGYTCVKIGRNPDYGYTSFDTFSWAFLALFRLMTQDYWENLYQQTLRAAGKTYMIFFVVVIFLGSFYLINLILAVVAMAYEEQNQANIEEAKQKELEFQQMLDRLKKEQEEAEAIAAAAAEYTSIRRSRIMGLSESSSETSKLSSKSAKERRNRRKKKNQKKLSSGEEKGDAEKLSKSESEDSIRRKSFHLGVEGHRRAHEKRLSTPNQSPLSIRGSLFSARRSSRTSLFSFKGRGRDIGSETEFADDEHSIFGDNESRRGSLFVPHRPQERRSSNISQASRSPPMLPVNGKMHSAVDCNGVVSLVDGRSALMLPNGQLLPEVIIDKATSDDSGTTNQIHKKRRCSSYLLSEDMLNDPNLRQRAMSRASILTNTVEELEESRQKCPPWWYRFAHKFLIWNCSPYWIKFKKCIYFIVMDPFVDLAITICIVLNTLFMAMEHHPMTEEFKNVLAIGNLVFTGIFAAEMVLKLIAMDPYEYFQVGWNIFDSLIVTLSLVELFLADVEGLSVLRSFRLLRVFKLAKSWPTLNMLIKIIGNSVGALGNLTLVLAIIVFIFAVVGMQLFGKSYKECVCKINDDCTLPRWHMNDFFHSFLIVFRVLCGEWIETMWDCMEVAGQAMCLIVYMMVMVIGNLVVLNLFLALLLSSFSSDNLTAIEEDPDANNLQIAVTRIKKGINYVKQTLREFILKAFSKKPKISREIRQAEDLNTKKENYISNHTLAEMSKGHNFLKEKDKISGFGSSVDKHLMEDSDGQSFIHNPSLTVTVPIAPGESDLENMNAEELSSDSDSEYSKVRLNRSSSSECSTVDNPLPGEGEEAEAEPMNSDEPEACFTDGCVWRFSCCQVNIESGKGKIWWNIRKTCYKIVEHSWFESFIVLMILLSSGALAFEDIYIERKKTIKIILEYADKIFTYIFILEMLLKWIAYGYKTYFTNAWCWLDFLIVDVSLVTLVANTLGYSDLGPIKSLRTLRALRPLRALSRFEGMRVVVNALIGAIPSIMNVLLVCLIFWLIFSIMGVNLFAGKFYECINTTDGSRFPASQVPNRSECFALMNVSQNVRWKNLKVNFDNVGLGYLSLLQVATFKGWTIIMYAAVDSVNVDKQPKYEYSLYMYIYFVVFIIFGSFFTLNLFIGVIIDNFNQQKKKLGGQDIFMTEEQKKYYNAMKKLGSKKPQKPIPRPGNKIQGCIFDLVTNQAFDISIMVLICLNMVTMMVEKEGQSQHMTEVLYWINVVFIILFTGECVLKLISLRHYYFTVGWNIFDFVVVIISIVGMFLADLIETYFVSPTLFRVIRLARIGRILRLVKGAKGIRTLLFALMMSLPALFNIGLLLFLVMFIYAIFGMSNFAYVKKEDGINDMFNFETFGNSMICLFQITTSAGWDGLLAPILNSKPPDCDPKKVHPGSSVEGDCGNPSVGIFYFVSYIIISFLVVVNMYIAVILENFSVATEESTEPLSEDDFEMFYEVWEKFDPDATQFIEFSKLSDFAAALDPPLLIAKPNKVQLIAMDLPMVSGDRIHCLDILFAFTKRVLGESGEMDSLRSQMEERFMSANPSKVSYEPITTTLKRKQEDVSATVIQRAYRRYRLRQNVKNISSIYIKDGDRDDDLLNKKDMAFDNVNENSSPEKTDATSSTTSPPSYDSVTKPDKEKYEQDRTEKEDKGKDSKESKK

Take `COc1cc([C@H]2C[C@H](C(F)(F)F)C2)c(F)cc1-n1c(=O)ccc2cc(S(=O)(=O)Nc3ncccn3)ccc21` (atropisomer, axis not shown; (P)) [Example 15, trans-(P)-1-(5-fluoro-2-methoxy-4-(3-(trifluoromethyl)cyclobutyl)phenyl)-2-oxo-N-(pyrimidin-2-yl)-1,2-dihydroquinoline-6-sulfonamide]: the pIC50 on Human Nav1.7 is 7.77. Moreover, the “Hu CYP3A4 mRNA Induction (10 uM POC)” value in the series with CYP3A4 was determined as 36%.

For the compound `COc1cc([C@H]2C[C@H](C(F)(F)F)C2)c(C)cc1-n1c(=O)ccc2cc(S(=O)(=O)Nc3ncccn3)ccc21` (atropisomer, axis not shown; (P)) [Example 37, trans-(P)-1-(2-methoxy-5-methyl-4-(3-(trifluoromethyl)cyclobutyl)phenyl)-2-oxo-N-(pyrimidin-2-yl)-1,2-dihydroquinoline-6-sulfonamide], in the series on CYP3A4, the “Hu CYP3A4 mRNA Induction (10 uM POC)” value was 49.51%.

On to `COc1cc([C@H]2C[C@H](C(F)(F)F)C2)c(Cl)cc1-n1c(=O)ccc2cc(S(=O)(=O)Nc3ncccn3)ccc21` (atropisomer, axis not shown; (P)) [Example 17, trans-(P)-1-(5-chloro-2-methoxy-4-(3-(trifluoromethyl)cyclobutyl)phenyl)-2-oxo-N-(pyrimidin-2-yl)-1,2-dihydroquinoline-6-sulfonamide], for which, at Human Nav1.7, the negative-log IC50 (pIC50) is 7.82.

Regarding `COc1cc([C@H]2C[C@](F)(C(F)(F)F)C2)c(F)cc1-n1c(=O)ccc2cc(S(=O)(=O)Nc3ccon3)ccc21` (atropisomer, axis not shown; (P)) [Example 9, cis-(P)-1-(5-fluoro-4-(3-fluoro-3-(trifluoromethyl)cyclobutyl)-2-methoxyphenyl)-N-(isoxazol-3-yl)-2-oxo-1,2-dihydroquinoline-6-sulfonamide], on Human Nav1.7, the negative-log IC50 (pIC50) was 8.70.

For `COc1cc([C@H]2C[C@H](C(F)(F)F)C2)c(F)cc1-n1c(=O)ccc2c(F)c(S(=O)(=O)Nc3ccon3)ccc21` (atropisomer, axis not shown; (P)) [Example 46, trans-(P)-5-fluoro-1-(5-fluoro-2-methoxy-4-(3-(trifluoromethyl)cyclobutyl)phenyl)-N-(isoxazol-3-yl)-2-oxo-1,2-dihydroquinoline-6-sulfonamide], the pIC50 at Human Nav1.7 is 8.10. The “Hu CYP3A4 mRNA Induction (10 uM POC)” value with CYP3A4 turned out to be 6.6%.

On to `COc1cc(C2CC(C(C)(C)C)C2)c(F)cc1-n1c(=O)ccc2cc(S(=O)(=O)Nc3ccon3)ccc21` (atropisomer, axis not shown; (P)) [Example 3, (P)-1-(4-(3-(tert-butyl)cyclobutyl)-5-fluoro-2-methoxyphenyl)-N-(isoxazol-3-yl)-2-oxo-1,2-dihydroquinoline-6-sulfonamide], for which the pIC50 on Human Nav1.7 is 7.48.

For `COc1cc([C@H]2C[C@@](F)(C(F)(F)F)C2)c(Cl)cc1-n1c(=O)ccc2cc(S(=O)(=O)Nc3ccon3)ccc21` (atropisomer, axis not shown; (P)) [Example 11, trans-(P)-1-(5-chloro-4-(3-fluoro-3-(trifluoromethyl)cyclobutyl)-2-methoxyphenyl)-N-(isoxazol-3-yl)-2-oxo-1,2-dihydroquinoline-6-sulfonamide], the negative logarithm of the IC50 (pIC50) on Human Nav1.7 is 8.70.

Consider `COc1cc(C2CCC2)c(Cl)cc1-n1c(=O)ccc2cc(S(=O)(=O)Nc3ncco3)ccc21` (atropisomer, axis not shown; (P)) [Example 32, (P)-1-(5-chloro-4-cyclobutyl-2-methoxyphenyl)-N-(oxazol-2-yl)-2-oxo-1,2-dihydroquinoline-6-sulfonamide], for which the negative-log IC50 (pIC50) at Human Nav1.7 is 8.00. For the same compound, the “Hu CYP3A4 mRNA Induction (10 uM POC)” value with CYP3A4 is 88%.

`COc1cc(C2CC(F)(C(F)(F)F)C2)c(F)cc1-n1c(=O)ccc2cc(S(=O)(=O)Nc3ccon3)ccc21` (atropisomer, axis not shown; (P)) [Example 5, (P)-1-(5-fluoro-4-(3-fluoro-3-(trifluoromethyl)cyclobutyl)-2-methoxyphenyl)-N-(isoxazol-3-yl)-2-oxo-1,2-dihydroquinoline-6-sulfonamide]: the pIC50 at Human Nav1.7 was 8.70.

For the compound `COc1cc([C@H]2C[C@](F)(C(F)(F)F)C2)c(Cl)cc1-n1c(=O)ccc2cc(S(=O)(=O)Nc3ccon3)ccc21` (atropisomer, axis not shown; (P)) [Example 10, cis-(P)-1-(5-chloro-4-(3-fluoro-3-(trifluoromethyl)cyclobutyl)-2-methoxyphenyl)-N-(isoxazol-3-yl)-2-oxo-1,2-dihydroquinoline-6-sulfonamide], the negative-log IC50 (pIC50) on Human Nav1.7 is 8.10.

For `COc1cc([C@H]2C[C@@H](C(F)(F)F)C2)c(Cl)cc1-n1c(=O)ccc2cc(S(=O)(=O)Nc3ncccn3)ccc21` (atropisomer, axis not shown; (P)) [Example 16, cis-(P)-1-(5-chloro-2-methoxy-4-(3-(trifluoromethyl)cyclobutyl)phenyl)-2-oxo-N-(pyrimidin-2-yl)-1,2-dihydroquinoline-6-sulfonamide], the pIC50 at Human Nav1.7 was 7.74.

For `COc1cc([C@H]2C[C@H](C(F)(F)F)C2)ccc1-n1c(=O)ccc2cc(S(=O)(=O)Nc3ncccn3)ccc21` (atropisomer, axis not shown; (P)) [Example 36, trans-(P)-1-(2-methoxy-4-((1R,3R)-3-(trifluoromethyl)cyclobutyl)phenyl)-2-oxo-N-(pyrimidin-2-yl)-1,2-dihydroquinoline-6-sulfonamide], the pIC50 at Human Nav1.7 is 7.85.

Consider `COc1cc([C@H]2C[C@H](C(F)(F)F)C2)c(Cl)cc1-n1c(=O)ccc2cc(S(=O)(=O)Nc3cccnn3)ccc21` (atropisomer, axis not shown; (P)) [Example 19, trans-(P)-1-(5-chloro-2-methoxy-4-(3-(trifluoromethyl)cyclobutyl)phenyl)-2-oxo-N-(pyridazin-3-yl)-1,2-dihydroquinoline-6-sulfonamide], for which, at Human Nav1.7, the pIC50 was 7.82.

As to `COc1cc(C2CC(F)(F)C2)c(Cl)cc1-n1c(=O)ccc2cc(S(=O)(=O)Nc3ccon3)ccc21` (atropisomer, axis not shown; (P)) [Example 48, (P)-1-(5-chloro-4-(3,3-difluorocyclobutyl)-2-methoxyphenyl)-N-(isoxazol-3-yl)-2-oxo-1,2-dihydroquinoline-6-sulfonamide], the pIC50 at Human Nav1.7 is 8.00.

In the case of `COc1cc(C23CC(C(F)(F)F)(C2)C3)c(F)cc1-n1c(=O)ccc2cc(S(=O)(=O)Nc3ncccn3)ccc21` (atropisomer, axis not shown; (P)) [Example 47, (P)-1-(5-fluoro-2-methoxy-4-(3-(trifluoromethyl)bicyclo[1.1.1]pentan-1-yl)phenyl)-2-oxo-N-(pyrimidin-2-yl)-1,2-dihydroquinoline-6-sulfonamide], the pIC50 at Human Nav1.7 was 8.10.

With `COc1cc(C2CCC2)ccc1-n1c(=O)ccc2cc(S(=O)(=O)Nc3ncco3)ccc21` (atropisomer, axis not shown; (P)) [Example 29, (P)-1-(4-cyclobutyl-2-methoxyphenyl)-N-(oxazol-2-yl)-2-oxo-1,2-dihydroquinoline-6-sulfonamide], the pIC50 at Human Nav1.7 was 7.43.

`COc1cc([C@H]2C[C@H](C(F)(F)F)C2)c(F)cc1-n1c(=O)ccc2cc(S(=O)(=O)Nc3ncco3)ccc21` (atropisomer, axis not shown; (P)) [Example 43, Trans-(P)-1-(5-Fluoro-2-Methoxy-4-(3-(Trifluoromethyl)Cyclobutyl)Phenyl)-N-(Oxazol-2-Yl)-2-Oxo-1,2-Dihydroquinoline-6-Sulfonamide]: the pIC50 on Human Nav1.7 was 8.15.

For `COc1cc(C2CCC2)c(F)cc1-n1c(=O)ccc2cc(S(=O)(=O)Nc3cccnn3)ccc21` (atropisomer, axis not shown; (P)) [Example 23, (P)-1-(4-cyclobutyl-5-fluoro-2-methoxyphenyl)-2-oxo-N-(pyridazin-3-yl)-1,2-dihydroquinoline-6-sulfonamide], on Human Nav1.7, the pIC50 was 6.99.

On to `COc1cc(C2CCC2)c(Cl)cc1-n1c(=O)ccc2cc(S(=O)(=O)Nc3ccon3)ccc21` (atropisomer, axis not shown; (P)) [Example 21, (P)-1-(5-chloro-4-cyclobutyl-2-methoxyphenyl)-N-(isoxazol-3-yl)-2-oxo-1,2-dihydroquinoline-6-sulfonamide], for which the pIC50 on Human Nav1.7 was 7.92.

One may read the pIC50 as the negative decadic logarithm of the IC50, by convention in mol/L.
